Test results taken from patent publication US20170065667A1, “METHODS FOR SYNCHRONIZATION OF ESTROUS CYCLES AND OVULATION FOR FIXED TIME ARTIFICIAL INSEMINATION IN CATTLE” (Parnell Technologies Pty Ltd., priority 2014, published 2017).
Several values for one entry are separate records, joined by “and”; a condition that tells them apart may be missing. Identical values can stand only once.

Test system: lactating Holstein cows
Test: Experiment 1: CL regression / circulating P4 after one vs. two 2 mL i.m. cloprostenol sodium injections in Double-Ovsynch
Format: in vivo, cattle
Conditions: for CL regression, % of cows: quartiles 2, 3 and 4 combined; for circulating P4 concentrations at 56 hours after the first injection: day of final gonadorelin acetate injection, serum, in ng/mL
Method: An experiment was conducted to determine the effectiveness of the exogenous administration of hormones for synchronizing the estrous cycles of lactating dairy cattle and resulting pregnancy rates subsequent to FTAI. A total of 373 lactating Holstein cows (172 primiparous, 201 multiparous) were synchronized with a Double-Ovsynch program comprising a first or presynchronization Ovsynch phase followed by a second Ovsynch phase. All animals were synchronized using a GnRH composition (about 100 mcg of gonadorelin acetate per mL, GONAbreed®, Parnell Technologies Pty Ltd, Alexandria, Australia) and a PGF2α analog composition (about 250 mcg of cloprostenol sodium per mL, estroPLAN®, Parnell Technologies Pty Ltd, Alexandria, Australia). The first Ovsynch phase began at about 51 to about 57 days in milk where the cows received a first 1 mL intramuscular injection of a gonadorelin acetate composition. At about 58 to about 64 days in milk, the cows received a first 2 mL intramuscular injection of a cloprostenol sodium composition. At about 61 to about 67 days in milk, the cows received a second 1 mL intramuscular injection of a gonadorelin acetate composition concluding the first Ovsynch phase. The animals were then synchronized with a second Ovsynch phase comprising an Ovsynch-56 protocol beginning at about 68 to about 74 days in milk where the cows received a third 1 mL intramuscular injection of gonadorelin acetate composition. At about 75 to about 81 days in milk, the animals received a second 2 mL intramuscular injection of a cloprostenol sodium composition. At about 77 to about 83 days in milk (about 56 hours after the second injection of a cloprostenol sodium composition), the animals received a fourth 1 mL intramuscular injection of a gonadorelin acetate composition. And at about 78 to about 84 days in milk (about 16 hours after the fourth injection of the gonadorelin acetate composition), the animals receive AI, concluding the second Ovsynch phase. […] The experimental protocol is shown in the diagram of FIG. 2. Blood samples of the cows were taken at the time of the second injection of the cloprostenol sodium composition (at about 72 hours before FTAI) and at the time of the fourth injection of the gonadorelin acetate composition (at about 16 hours before FTAI). Blood samples were collected from the coccygeal vessels into vacuum tubes. Following collection, the blood samples were placed on ice and transported to a laboratory. After clotting (about 16 hours), samples were centrifuged at 3,000 rpm for 20 minutes and serum was isolated into vials, frozen and stored at −20 Celsius until assayed for P4 concentrations. Progesterone was determined directly from serum using a solid phase radioimmunoassay kit (Coat-A-Count, Siemens Healthcare Diagnostics, Los Angeles, Calif.) with no extraction. […] Statistical analyses were performed with SAS (SAS Institute, 2006). Variables with a binomial distribution, such as P/AI and percentage of animals with CL regression, were analyzed by logistic regression using the LOGISTIC procedure. One-tailed comparisons were utilized throughout the study for comparison of the effect of an additional cloprostenol sodium injection on CL regression and animals pregnant to the FTAI. Continuous variables were analyzed using ANOVA with logistic regression utilized to compare the relationship between circulating P4 and the binomial traits. Animals with ≦2.0 ng/mL P4 on day of PGF were removed from the analysis (n=29; 13 primiparous, 16 multiparous) due to lack of synchronization to the double Ovsynch protocol. Therefore, all analyses were done with a total of 344 lactating dairy cows (n=159 primiparous; n=185 multiparous). Statistical differences were considered significant for P≦0.05 and as a tendency for P≦0.15.

[1] = one injection, overall (all cows), P4 <0.5 ng/mL at 56 h
[2] = two injections, Quartile 1, [P4] 2.0-5.4 at first injection
[3] = two injections, overall (all cows), P4 <0.5 ng/mL at 56 h

Q: Which “percentage of cows with P4 below 0.2 ng/mL at final GnRH” value (one injection) does the source give for `O=C(O)CCC/C=C\CC1C(O)CC(O)C1/C=C/C(O)COc1cccc(Cl)c1` (stereo not shown) [cloprostenol sodium] here?
A: 42.0%

Q: What about the “percentage of cows with higher P4 (>0.5 ng/mL) at final GnRH” value (one injection) of the same compound?
A: 17.0%

Q: What about the “percentage of cows with lower P4 (0.1 to 0.19) at final GnRH” value (one injection) of the same compound?
A: 34.7%

Q: What about the “CL regression, % (n/n)” value (one injection, Quartile 1, [P4] 2.0-4.8 at first injection) of the same compound?
A: 66.7% and 66.7 (28/42) %

Q: What about the “CL regression, % (n/n)” value (one injection, Quartile 2, [P4] 4.9-6.7) of the same compound?
A: 84.4 (38/45) %

Q: What about the “CL regression, % (n/n)” value (one injection, Quartile 3, [P4] 6.8-8.7) of the same compound?
A: 95.5 (42/44) %

Q: And the “CL regression, % (n/n)” value (one injection, Quartile 4, [P4] 8.8-12)?
A: 84.4 (38/45) %

Q: What about the “% of cows with complete CL regression” value (one injection, multiparous, P4 <0.5 ng/mL at 56 h) of the same compound?
A: 84.4% (81/96)

Q: What about the “% of cows with complete CL regression” value [1] of the same compound?
A: 83.0% (146/176)

Q: And the “% of cows with complete CL regression” value (one injection, primiparous, P4 <0.5 ng/mL at 56 h after first injection)?
A: 81.2% (65/80)

Q: What about the “CL regression, % of cows” value (one injection) of the same compound?
A: 88.1%

Q: What about the “circulating P4 concentrations at 56 hours after the first injection” value (single injection) of the same compound?
A: 0.4 ± 0.04

Q: What about the “percentage of cows with P4 below 0.2 ng/mL at final GnRH” value (two injections) of the same compound?
A: 60.7%

Q: And the “percentage of cows with higher P4 (>0.5 ng/mL) at final GnRH” value (two injections)?
A: 2.4%

Q: And the “percentage of cows with lower P4 (0.1 to 0.19) at final GnRH” value (two injections)?
A: 49.4%

Q: And the “% of cows with complete CL regression” value (two injections (second 24 h after first), primiparous, P4 <0.5 ng/mL at 56 h)?
A: 97.5% (77/79)

Q: What about the “CL regression, % (n/n)” value [2] of the same compound?
A: 95.1% and 95.1 (39/41) %

Q: What about the “CL regression, % (n/n)” value (two injections, Quartile 2, [P4] 5.5-7.0) of the same compound?
A: 95.6 (43/45) %

Q: What about the “CL regression, % (n/n)” value (two injections, Quartile 3, [P4] 7.1-8.6) of the same compound?
A: 100 (43/43) %

Q: What about the “CL regression, % (n/n)” value (two injections, Quartile 4, [P4] 8.7-12) of the same compound?
A: 97.4 (38/39) %

Q: What about the “circulating P4 concentrations at 56 hours after the first injection” value (two injections) of the same compound?
A: 0.2 ± 0.05

Q: And the “% of cows with complete CL regression” value (two injections, multiparous, P4 <0.5 ng/mL at 56 h)?
A: 96.7% (86/89)

Q: And the “% of cows with complete CL regression” value [3]?
A: 97.0% (163/168)

Q: And the “CL regression, % of cows” value (two injections)?
A: 97.6%

Q: Which results are given for prostaglandin F2α [PGF]?
A: % of cows with complete CL regression [1]: 83%; % of cows that did not completely regress the CL (single PGF treatment, all cows): 18%; % of cows with inadequate CL regression (single PGF treatment, greater circulating P4 at time of PGF): 11.9%; % of cows with inadequate CL regression (single PGF treatment, lower P4 (2.0 to 4.8 ng/mL) at time of PGF): 33.3%; CL regression, % (n/n) [2]: 95.1%; % of cows with complete CL regression [3]: 97%; CL regression, % of cows (two injections): 97.6%
